Results on 2 compounds are retold here after patent US9845512B2, “Screening assay employing Dex and GDF8” (RIGEL PHARMACEUTICALS, INC., priority 2010, dated 2017).

For the experiment, the system named is endogenous MuRF1. The experiment in a line: Endogenous MuRF1 expression in HepG2 cells by Taqman RT-PCR. In kind it is cell-based, human. The method, then:
Cultured HepG2 cells were exposed to 1 μM dexamethasone, 10 μM dexamethasone, 100 ng/ml GDF8, 100 ng/ml TGFβ1, and 10 μM dexamethasone+100 ng/ml GDF8, and expression of endogenous MuRF1 was evaluated by RT-PCR using Taqman RT-PCR assay. […] 10 μM dexamethasone induced expression of endogenous MuRF1 2.5× over the no treatment control, and 100 ng/ml GDF8 induced expression of endogenous MuRF1 1.8× over the no treatment control.
MuRF1 induction is observable at four hours of treatment, as compared to controls.
(Real-time PCR tracks product formation cycle by cycle.)

Consider `C[C@@H]1C[C@H]2[C@@H]3CCC4=CC(=O)C=C[C@]4(C)[C@@]3(F)[C@@H](O)C[C@]2(C)[C@@]1(O)C(=O)CO` [dexamethasone], for which, where the note is “10 μM dexamethasone alone”, the “induction of endogenous MuRF1 expression over the no treatment control” value came to 2.5 ×. Turning to “GDF8: secreted TGFβ protein family member that inhibits muscle differentiation and growth; ligand for the myostatin receptor”, the “induction of endogenous MuRF1 expression over the no treatment control” value (100 ng/ml GDF8 alone) is listed as 1.8 ×.
